Experimental data reported in PubChem BioAssay (NCI).
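GI50 marks 50% less growth. Definition used: TGI = concentration required for complete inhibition of growth.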

What was measured:
Assay in all cases: growth of human tumour cells (NCI), 384-well format
[1] = tested on: 786-0 renal
[2] = tested on: A498 renal
[3] = tested on: A549 NSCLC
[4] = tested on: ACHN renal
[5] = tested on: BT-549 breast
[6] = tested on: CAKI-1 renal
[7] = tested on: CCRF-CEM leukemia
[8] = tested on: COLO 205 colon
[9] = tested on: DU-145 prostate
[10] = tested on: EKVX NSCLC
[11] = tested on: HCC-2998 colon
[12] = tested on: HCT-116 colon
[13] = tested on: HCT-15 colon
[14] = tested on: HL-60(TB) leukemia
[15] = tested on: HOP-62 NSCLC
[16] = tested on: HOP-92 NSCLC
[17] = tested on: HS 578T breast
[18] = tested on: HT29 colon
[19] = tested on: IGROV1 ovarian
[20] = tested on: K-562 leukemia
[21] = tested on: KM12 colon
[22] = tested on: LOX IMVI melanoma
[23] = tested on: M14 melanoma
[24] = tested on: MALME-3M melanoma
[25] = tested on: MCF7 breast
[26] = tested on: MDA-MB-231 breast
[27] = tested on: MDA-MB-435 melanoma
[28] = tested on: MDA-MB-468 breast
[29] = tested on: MOLT-4 leukemia
[30] = tested on: NCI-H226 lung
[31] = tested on: NCI-H23 lung
[32] = tested on: NCI-H322M lung
[33] = tested on: NCI-H460 NSCLC
[34] = tested on: NCI-H522 lung
[35] = tested on: NCI/ADR-RES ovarian
[36] = tested on: OVCAR-3 ovarian
[37] = tested on: OVCAR-4 ovarian
[38] = tested on: OVCAR-5 ovarian
[39] = tested on: OVCAR-8 ovarian
[40] = tested on: PC-3 prostate
[41] = tested on: RPMI-8226 leukemia
[42] = tested on: RXF 393 renal
[43] = tested on: SF-268 CNS
[44] = tested on: SF-295 CNS
[45] = tested on: SF-539 CNS
[46] = tested on: SK-MEL-2 melanoma
[47] = tested on: SK-MEL-28 melanoma
[48] = tested on: SK-MEL-5 melanoma
[49] = tested on: SK-OV-3 ovarian
[50] = tested on: SN12C renal
[51] = tested on: SNB-19 CNS
[52] = tested on: SNB-75 CNS
[53] = tested on: SR leukemia
[54] = tested on: SW-620 colon
[55] = tested on: T-47D breast
[56] = tested on: TK-10 renal
[57] = tested on: U251 glioblastoma
[58] = tested on: UACC-257 melanoma
[59] = tested on: UACC-62 melanoma
[60] = tested on: UO-31 renal

O=C(O)[C@H](Cc1c[nH]c2ccccc12)N1C(=O)c2ccccc2C1=O
GI50 [1]: > 100 µM
TGI [1]: > 100 µM
GI50 [2]: > 100 µM
TGI [2]: > 100 µM
GI50 [3]: > 100 µM
TGI [3]: > 100 µM
GI50 [4]: > 100 µM
TGI [4]: > 100 µM
GI50 [5]: > 100 µM
TGI [5]: > 100 µM
GI50 [6]: > 100 µM
TGI [6]: > 100 µM
GI50 [7]: > 100 µM
TGI [7]: > 100 µM
GI50 [8]: > 100 µM
TGI [8]: > 100 µM
GI50 [9]: > 100 µM
TGI [9]: > 100 µM
GI50 [10]: > 100 µM
TGI [10]: > 100 µM
GI50 [11]: > 100 µM
TGI [11]: > 100 µM
GI50 [12]: > 100 µM
TGI [12]: > 100 µM
GI50 [13]: > 100 µM
TGI [13]: > 100 µM
GI50 [14]: > 100 µM
TGI [14]: > 100 µM
GI50 [15]: > 100 µM
TGI [15]: > 100 µM
GI50 [16]: > 100 µM
TGI [16]: > 100 µM
GI50 [17]: > 100 µM
TGI [17]: > 100 µM
GI50 [18]: > 100 µM
TGI [18]: > 100 µM
GI50 [19]: > 100 µM
TGI [19]: > 100 µM
GI50 [20]: > 100 µM
TGI [20]: > 100 µM
GI50 [21]: > 100 µM
TGI [21]: > 100 µM
GI50 [22]: > 100 µM
TGI [22]: > 100 µM
GI50 [23]: > 100 µM
TGI [23]: > 100 µM
GI50 [24]: > 100 µM
TGI [24]: > 100 µM
GI50 [25]: > 100 µM
TGI [25]: > 100 µM
GI50 [26]: > 100 µM
TGI [26]: > 100 µM
GI50 [27]: > 100 µM
TGI [27]: > 100 µM
GI50 [28]: > 100 µM
TGI [28]: > 100 µM
GI50 [29]: > 100 µM
TGI [29]: > 100 µM
GI50 [30]: > 100 µM
TGI [30]: > 100 µM
GI50 [31]: > 100 µM
TGI [31]: > 100 µM
GI50 [32]: > 100 µM
TGI [32]: > 100 µM
GI50 [33]: > 100 µM
TGI [33]: > 100 µM
GI50 [34]: > 100 µM
TGI [34]: > 100 µM
GI50 [35]: > 100 µM
TGI [35]: > 100 µM
GI50 [36]: > 100 µM
TGI [36]: > 100 µM
GI50 [37]: > 100 µM
TGI [37]: > 100 µM
GI50 [38]: > 100 µM
TGI [38]: > 100 µM
GI50 [39]: > 100 µM
TGI [39]: > 100 µM
GI50 [40]: > 100 µM
TGI [40]: > 100 µM
GI50 [41]: > 100 µM
TGI [41]: > 100 µM
GI50 [42]: > 100 µM
TGI [42]: > 100 µM
GI50 [43]: > 100 µM
TGI [43]: > 100 µM
GI50 [44]: > 100 µM
TGI [44]: > 100 µM
GI50 [45]: > 100 µM
TGI [45]: > 100 µM
GI50 [46]: > 100 µM
TGI [46]: > 100 µM
GI50 [47]: > 100 µM
TGI [47]: > 100 µM
GI50 [48]: > 100 µM
TGI [48]: > 100 µM
GI50 [49]: > 100 µM
TGI [49]: > 100 µM
GI50 [50]: > 100 µM
TGI [50]: > 100 µM
GI50 [51]: > 100 µM
TGI [51]: > 100 µM
GI50 [52]: > 100 µM
TGI [52]: > 100 µM
GI50 [53]: > 100 µM
TGI [53]: > 100 µM
GI50 [54]: > 100 µM
TGI [54]: > 100 µM
GI50 [55]: > 100 µM
TGI [55]: > 100 µM
GI50 [56]: > 100 µM
TGI [56]: > 100 µM
GI50 [57]: > 100 µM
TGI [57]: > 100 µM
GI50 [58]: > 100 µM
TGI [58]: > 100 µM
GI50 [59]: > 100 µM
TGI [59]: > 100 µM
GI50 [60]: > 100 µM
TGI [60]: > 100 µM
